Where two headings read alike, the source gives them in different places.
Experiments:
[1] = biological target: T1, rat sEH (Rattus norvegicus, UniProt P80299); test: Relative turnover of arachidonic acid epoxides by rat sEH; assay type: biochemical; conditions: for Relative EET Turnover: Table 20, arachidonic acid epoxides with the rat sEH; for relative substrate turnover of the epoxy arachidonates: 1:1:2 mixture of 8,9-, 11,12-, and 14,15-EET hydrolyzed to 30% by rat renal cortex cytosol
T1 construct: was hydrolyzed to 30% by rat renal cortex cytosol; from tissue; host or cells: rat renal cortex cytosol
T1 sequence (P80299 1-554): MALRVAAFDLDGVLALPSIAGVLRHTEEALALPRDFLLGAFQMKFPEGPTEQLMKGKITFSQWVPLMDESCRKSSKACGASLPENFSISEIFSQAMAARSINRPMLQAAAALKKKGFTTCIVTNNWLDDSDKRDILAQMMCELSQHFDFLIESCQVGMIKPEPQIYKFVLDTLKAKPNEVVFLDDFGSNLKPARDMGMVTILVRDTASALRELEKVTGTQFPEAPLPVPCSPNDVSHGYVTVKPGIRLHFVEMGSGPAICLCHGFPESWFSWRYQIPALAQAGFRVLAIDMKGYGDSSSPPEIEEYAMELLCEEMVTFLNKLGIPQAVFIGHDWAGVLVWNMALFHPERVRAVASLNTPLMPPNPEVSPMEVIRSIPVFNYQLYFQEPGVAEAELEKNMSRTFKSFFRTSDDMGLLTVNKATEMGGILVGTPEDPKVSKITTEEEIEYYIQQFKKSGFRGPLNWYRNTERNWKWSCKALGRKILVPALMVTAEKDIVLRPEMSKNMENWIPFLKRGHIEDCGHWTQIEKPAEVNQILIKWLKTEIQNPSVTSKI
Experimental: For epoxy fatty acid hydrolysis, the soluble epoxide hydrolase prefers substrates with epoxide moieties that are more distant from the carboxyl terminal. Specifically the substrate preference decreases in the order of 14,15-EET >11,12-EET >8,9-EET >>>5,6-EET for the epoxides of arachidonic acid. Independently, the relative substrate turnover of the epoxy arachidonates were calculated at 0.1:8.1:14.3 when a 1:1:2 mixture of 8,9-, 11,12-, and 14,15-EET fatty acid was hydrolyzed to 30% by rat renal cortex cytosol. By considering the primary pharmacophore of the urea to be a transition-state analog of epoxide hydrolysis, preferred inhibitors have now been developed which incorporate long aliphatic acids. These compounds are better substrate and transition state mimics than those incorporating shorter aliphatic acids. Accordingly, optimal soluble epoxide hydrolase inhibitors can be obtained by producing compounds with aliphatic acid substituents (i.e. a tertiary pharmacophore) which are separated from the primary pharmacophore by an equivalent distance as the terminal acid is separated from the epoxide in optimal substrates. Within the enzyme active site, epoxy fatty acids have been predicted to exist in an extended or pseudo-linear confirmation. Therefore, both the epoxy fatty acids and the aliphatic acid containing urea structures were approximated as two dimensional linear representations and measurements were made on each species. The critical measurements taken were distances (in angstroms) from the carboxylate hydroxyl to the urea carbonyl and the urea nitrogens.

[2] = Metabolic stability in rat hepatic microsomes with NADPH generating system; assay type: in vitro ADME; conditions: rat, microsomes
Experimental: FIG. 6 is a graph illustrating the metabolic stabilities of 1-adamantyl-3-dodecyl urea (686) and 1-cyclohexyl-3-dodecyl urea (297) in rat hepatic microsomes. Microsomes were incubated with 1 μM 686 or 297 in the presence of an NADPH generating system. Data are expressed as mean ±SD of triplicate experiments.
To evaluate the metabolic stability of these inhibitors, the microsomal and NADPH dependent metabolism of a number of potent sEH inhibitors was evaluated. […] The first step in the metabolic transformation of the n-alkyl to n-alkanoic acid derivatives is an NAPDH dependent process carried out by cytochrome P450 dependent omega hydroxylation in rodent and human hepatic tissue preparations (see FIG. 8). When in vivo metabolism was evaluated, evidence for the beta-oxidation of the alkanoic acid derivatives was also found (see FIG. 9).

[3] = biological target: T2, mouse sEH (Mus musculus, UniProt P34914); test: Inhibition of recombinant mouse sEH, IC50 assay with 4-nitrophenyl-trans-2,3-epoxy-3-phenylpropyl carbonate as substrate; assay type: biochemical; conditions: read-out: IC50 (μM) Mouse sEH
T2 construct: made in house; host or cells: baculovirus expression system
T2 sequence (P34914 1-554): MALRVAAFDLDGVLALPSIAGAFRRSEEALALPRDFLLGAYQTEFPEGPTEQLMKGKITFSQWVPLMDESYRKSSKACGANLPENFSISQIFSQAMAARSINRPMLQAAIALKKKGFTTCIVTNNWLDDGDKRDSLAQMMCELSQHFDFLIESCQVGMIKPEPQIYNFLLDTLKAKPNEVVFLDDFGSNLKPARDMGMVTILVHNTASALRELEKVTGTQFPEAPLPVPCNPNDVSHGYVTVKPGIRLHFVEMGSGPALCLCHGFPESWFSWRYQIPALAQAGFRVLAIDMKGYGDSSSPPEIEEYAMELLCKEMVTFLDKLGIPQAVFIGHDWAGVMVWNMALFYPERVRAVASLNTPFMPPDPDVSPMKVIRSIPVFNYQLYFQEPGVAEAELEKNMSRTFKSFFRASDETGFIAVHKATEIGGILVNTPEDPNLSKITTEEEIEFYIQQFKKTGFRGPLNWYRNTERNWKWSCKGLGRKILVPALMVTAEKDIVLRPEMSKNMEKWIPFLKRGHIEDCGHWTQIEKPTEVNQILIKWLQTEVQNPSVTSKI
Experimental: (§1) Assays were performed in triplicate. […] The curve was generated from at least three separate runs, each in triplicate, to obtain the standard deviation (SD) given in Table 1 thru Table 4.

[4] = biological target: T3, human sEH (Homo sapiens, UniProt P34913); test: Inhibition of recombinant human sEH, IC50 assay with 4-nitrophenyl-trans-2,3-epoxy-3-phenylpropyl carbonate as substrate; assay type: biochemical
T3 construct: made in house; host or cells: baculovirus expression system
T3 sequence (P34913 1-555): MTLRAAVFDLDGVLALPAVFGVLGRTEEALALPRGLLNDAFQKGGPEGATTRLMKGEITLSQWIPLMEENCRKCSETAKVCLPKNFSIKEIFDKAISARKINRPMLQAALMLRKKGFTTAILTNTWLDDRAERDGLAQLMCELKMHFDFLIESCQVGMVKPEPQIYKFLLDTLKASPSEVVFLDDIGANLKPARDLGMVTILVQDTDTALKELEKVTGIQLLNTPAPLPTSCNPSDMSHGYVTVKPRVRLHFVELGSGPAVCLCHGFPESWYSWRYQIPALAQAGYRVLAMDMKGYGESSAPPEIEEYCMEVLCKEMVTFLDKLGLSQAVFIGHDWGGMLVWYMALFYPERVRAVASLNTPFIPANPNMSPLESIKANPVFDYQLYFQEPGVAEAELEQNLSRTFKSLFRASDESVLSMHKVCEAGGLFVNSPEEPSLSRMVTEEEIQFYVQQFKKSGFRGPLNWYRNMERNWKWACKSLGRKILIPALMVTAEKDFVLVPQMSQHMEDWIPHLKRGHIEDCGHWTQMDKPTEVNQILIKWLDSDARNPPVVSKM
Experimental: as §1

[5] = Pharmacokinetics after oral gavage in mice; assay type: in vivo, mouse; conditions: 5 mg/kg orally
Experimental: Animals. Male Swiss Webster mice, 6 weeks-old, were obtained from Charles River (Calif., USA). […] The body weight of animals used in all the experiments ranged from 28 g to 38 g. […] Administration and measurement. […] Then the samples were centrifuged at 6000 rpm for 5 min, and the ethyl acetate layer was dried under nitrogen. The residue was reconstituted in 25 μL of methanol, and aliquots (5 μL) were injected onto the LC-MS/MS system. Analysis. Pharmacokinetics analysis was performed using SigmaPlot software system (SPSS science, Chicago, Ill.). […] AUC=a/b Where: • C=the total blood concentration at time t • a=the extrapolated zero intercept b=the apparent first-order elimination rate constant

[6] = Water solubility; assay type: physicochemical; conditions: for solubility relative to the corresponding cyclohexyl derivative: 772 vs. 789, 791 vs. 790, 297 vs. 686; for water solubility: compared with non-functionalized lipophilic inhibitors (791, 790)
[7] = system: mouse and human sEH; test: sEH IC50 assay, comparisons of the text made for both enzymes or without naming the enzyme; assay type: biochemical
Experimental: as §1

[8] = Blood concentration after oral administration of 950 and AUDA-nBE, human pharmacokinetic profile; assay type: in vivo; conditions: see FIGS. 15-27
Experimental: FIG. 16 provides a sample preparation procedure for a pharmacokinetic study. A 5 μl whole blood sample was drawn into a capillary at a specific time point, each sample was extracted and anaylzed by LC/MS-MS. […] AUDA is the active metabolite of AUDA-nBE. […] 0.05 mg/kg. (B). 0.1 mg/kg. […] The compounds were administered at the same time in the same formulation. […] 21 mg (0.3 mg/kg) 950 and AUDA-nBE were orally administrated with starch. (B). 7 mg (0.1 mg/kg) formulated 950 and AUDA-NBE were taken with (HPMC, starch and lactose). (C). […] 950 with HPMC and Starch. (B). 950 in lactose and HPMC. […] HPMC forms a gel which slowly erodes; lactose enhances erosion at it moves through the gut and starch retards it. These formulations are combined, ball milled, and then placed in ‘0’ capsule and not compressed.

[9] = Effect of compound 950 and of Norvasc on blood pressure; assay type: in vivo; conditions: 950 0.05 mg/Kg per day
[10] = Table 2, […] enzyme, 5 min preincubation, pH 7.4, 30° C., means ± SD, read-out: IC50 (μM) Human sEH
[11] = Table 2, […] enzyme, 5 min preincubation, pH 7.4, 30° C., means ± SD

Compound: CCCCC/C=C\C/C=C\C/C=C\CC1OC1CCCC(=O)O (stereo not shown) [5,6-EET]
- Relative EET Turnover [1]: 0.1

Compound: CCCCC/C=C\C/C=C\CC1OC1C/C=C\CCCC(=O)O (stereo not shown) [8,9-EET]
- relative substrate turnover of the epoxy arachidonates [1]: 0.1
- Relative EET Turnover [1]: 1

Compound: CCCCC/C=C\C[C@H]1O[C@H]1C/C=C\C/C=C\CCCC(=O)O [11,12-EET]
- relative substrate turnover of the epoxy arachidonates [1]: 8.1
- Relative EET Turnover [1]: 8.1

Compound: CCCCCC1OC1C/C=C\C/C=C\C/C=C\CCCC(=O)O (stereo not shown) [14,15-EET]
- relative substrate turnover of the epoxy arachidonates [1]: 14.3
- Relative EET Turnover [1]: 14.3

Compound: O=C(NC1CCCCC1)NC12CC3CC(CC(C3)C1)C2 [Compound 192, 1-adamantyl-3-cyclohexylurea]
- metabolic stability in microsomal preparations [2]: improved stability

Compound: CCCCCCCCCCCCNC(=O)NC12CC3CC(CC(C3)C1)C2 [Compound 686, 1-adamantyl-3-dodecylurea, reference compound]
- IC50 ([3]; Table 2, 0.12 μM enzyme, 5 min preincubation, pH 7.4, 30° C., means ± SD): 0.05 ± 0.01 µM
- IC50 [4, 10]: 0.1 ± 0.01 µM
- time to reach the maximum concentration [5]: 2 h
- solubility relative to the corresponding cyclohexyl derivative [6]: approximately 2 x

Compound: CCCCCOC(=O)CCCNC(=O)Nc1cccc(Cl)c1 [Compound 767, 1-(3-chlorophenyl)-3-(3-pentoxycarbonylpropyl)urea]
- IC50 ([3]; Table 3, […] enzyme, 5 min preincubation, pH 7.4, 30° C., means ± SD): 0.37 ± 0.04 µM
- IC50 ([4]; Table 3, […] enzyme, 5 min preincubation, pH 7.4, 30° C., means ± SD, read-out: IC50 (μM) Human sEH): 2.1 ± 0.07 µM
- better inhibition than 761 ([7]; methylene carbon left versus right of the carbonyl): 20 fold

Compound: CCCCCOC(=O)CCCNC(=O)NC1CCCCC1 [Compound 772, 1-Cyclohexyl-3-(3-pentoxycarbonylpropyl)urea]
- IC50 [3, 11]: 0.05 ± 0.01 µM
- IC50 [4, 10]: 1.02 ± 0.05 µM
- increase of inhibitor potency over the 3-chlorophenyl analog (767) [7]: 10 fold
- water solubility [6]: increases their water solubility

Compound: COC(=O)CCCNC(=O)NC1CCCCC1 [Compound 774]
- IC50 ([3]; Table 1, 0.12 μM enzyme, 5 min preincubation, pH 7.4, 30° C., [S] = 40 μM, means ± SD of three experiments): 0.33 ± 0.03 µM
- IC50 [4]: 6.2 ± 0.5 µM
- fold higher activity than the esters of acetic and propanoic acids (549 and 635) ([7]; for both enzymes): 8-100 fold

Compound: CCCCCOC(=O)CCCNC(=O)NC12CC3CC(CC(C3)C1)C2 [Compound 789]
- IC50 [3, 11]: 0.05 ± 0.01 µM
- IC50 [4, 10]: 0.17 ± 0.01 µM
- increase of inhibitor potency over the 3-chlorophenyl analog (767) [7]: 10 fold
- solubility relative to the corresponding cyclohexyl derivative [6]: approximately 2 x
- water solubility [6]: increases their water solubility

Compound: CCCCCCCCCCNC(=O)NC12CC3CC(CC(C3)C1)C2 [Compound 790, reference compound]
- IC50 [3, 11]: 0.05 ± 0.01 µM
- IC50 [4, 10]: 0.1 ± 0.01 µM
- solubility relative to the corresponding cyclohexyl derivative [6]: approximately 2 x

Compound: COCCOCCCCCNC(=O)NC12CC3CC(CC(C3)C1)C2 [Compound 908]
- IC50 ([3]; Table 7, established protocols): 0.05 ± 0.01 µM
- IC50 ([4]; Table 7, established protocols, read-out: IC50 (μM) Human sEH): 0.16 ± 0.01 µM
- water solubility [6]: increased water solubility
- pharmacokinetics [8]: improved pharmacokinetics

Compound: CCOC(=O)C1=C(COCCN)NC(C)=C(C(=O)OC)C1c1ccccc1Cl (stereo not shown) [Norvasc]
- Systolic Avg. ([9]; Norvasc 5.0 mg per day (separate experiment), W/O 950 151, W/O Norvasc 145): 143
- Pulse Avg. ([9]; Norvasc 5.0 mg per day, W/O 950 97, W/O Norvasc 79): 89
- Diastolic Avg. ([9]; Norvasc 5.0 mg per day, W/O 950 103, W/O Norvasc 100): 95
